From article PMC9730482 (ACS Omega, 2022)

Target: α-glucosidase (Saccharomyces cerevisiae, UniProt P38158)
Assay: In vitro α-glucosidase inhibition assay
Type: biochemical, S. cerevisiae
Settings: for inhibition at 500 µM: read-out: percent inhibition (0.5 mM)

Sequence of α-glucosidase (P38158 whole entry): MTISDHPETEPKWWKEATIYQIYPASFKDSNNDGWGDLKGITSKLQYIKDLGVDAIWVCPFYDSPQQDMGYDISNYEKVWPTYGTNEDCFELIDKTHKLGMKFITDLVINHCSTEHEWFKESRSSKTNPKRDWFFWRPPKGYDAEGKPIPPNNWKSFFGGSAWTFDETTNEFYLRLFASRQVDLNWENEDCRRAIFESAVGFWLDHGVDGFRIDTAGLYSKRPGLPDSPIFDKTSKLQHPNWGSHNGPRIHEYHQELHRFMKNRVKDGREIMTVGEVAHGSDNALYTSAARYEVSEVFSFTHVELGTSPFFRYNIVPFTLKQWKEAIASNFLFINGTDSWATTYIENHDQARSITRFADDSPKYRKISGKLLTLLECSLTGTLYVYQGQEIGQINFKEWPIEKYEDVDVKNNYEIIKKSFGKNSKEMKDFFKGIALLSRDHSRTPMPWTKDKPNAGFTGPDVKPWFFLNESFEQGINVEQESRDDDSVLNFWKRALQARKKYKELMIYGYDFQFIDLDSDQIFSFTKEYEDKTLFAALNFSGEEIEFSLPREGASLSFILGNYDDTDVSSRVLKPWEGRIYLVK

Structure (SMILES)	IC50	inhibition at 500 µM
O=[N+]([O-])c1ccc(C=Nc2ccc3[nH]c(S)nc3c2)cc1 [7c, 5-((4-Nitrobenzylidene)amino)-1H-benzo[d]imidazole-2-thiol]	9.84 ± 0.08 µM	95.7%
Cc1ccc(C=Nc2ccc3[nH]c(S)nc3c2)cc1 [7m, 5-((4-Methylbenzylidene)amino)-1H-benzo[d]imidazole-2-thiol]	11.1 ± 0.79 µM	94%
Oc1ccc(C=Nc2ccc3[nH]c(S)nc3c2)c(O)c1 [7i, 4-(((2-Mercapto-1H-benzo[d]imidazol-5-yl)Imino)methyl)benzene-1,3-diol]	0.64 ± 0.05 µM	95.4%
CCN(CC)c1ccc(C=Nc2ccc3[nH]c(S)nc3c2)cc1 [7d, 5-((4-(Diethylamino)benzylidene)amino)-1H-benzo[d]imidazole-2-thiol]	5.34 ± 0.16 µM	96.6%
COc1cc(C=Nc2ccc3[nH]c(S)nc3c2)cc(OC)c1OC [7j, 5-((3,4,5-Trimethoxybenzylidene)amino)-1H-benzo[d]imidazole-2-thiol]	18.7 ± 0.74 µM	94.7%
C[C@H]1O[C@H](O[C@H]2[C@H](O)[C@@H](O)[C@@H](O[C@H]3[C@H](O)[C@@H](O)C(O)O[C@@H]3CO)O[C@@H]2CO)[C@H](O)[C@@H](O)[C@@H]1N[C@H]1C=C(CO)[C@@H](O)[C@H](O)[C@H]1O (stereo partly shown) [acarbose, reference compound]		58.5%
COc1ccc(C=Nc2ccc3[nH]c(S)nc3c2)c(OC)c1 [7f, 5-((2,4-Dimethoxybenzylidene)amino)-1H-benzo[d]imidazole-2-thiol]	6.46 ± 0.3 µM	95%
Sc1nc2cc(N=Cc3ccc(Cl)cc3)ccc2[nH]1 [7b, 5-((4-Chlorobenzylidene)amino)-1H-benzo[d]imidazole-2-thiol]	27.3 ± 0.3 µM	93.2%
COc1cccc(C=Nc2ccc3[nH]c(S)nc3c2)c1O [7e, 2-(((2-Mercapto-1H-benzo[d]imidazol-5-yl)imino)methyl)-6-methoxyphenol]	16.4 ± 0.53 µM	91.3%

Continued by falling IC50, values first:

IC50	inhibition at 500 µM	Structure (SMILES)
343.1 ± 1.62 µM	83.2%	COc1ccccc1C=Nc1ccc2[nH]c(S)nc2c1 [7l, 5-((2-Methoxybenzylidene)amino)-1H-benzo[d]imidazole-2-thiol]
70.3 ± 1.52 µM	87.6%	Sc1nc2cc(N=Cc3cccs3)ccc2[nH]1 [7k, 5-((Thiophen-2-ylmethylene)amino)-1H-benzo[d]imidazole-2-thiol]
20.7 ± 0.59 µM	91.7%	COc1ccc(C=Nc2ccc3[nH]c(S)nc3c2)cc1OC [7h, 5-((3,4-Dimethoxybenzylidene)amino)-1H-benzo[d]imidazole-2-thiol]
11.8 ± 0.26 µM	95.7%	Oc1ccc(C=Nc2ccc3[nH]c(S)nc3c2)cc1 [7a, 4-(((2-Mercapto-1H-benzo[d]imidazol-5-yl)imino)methyl)phenol]
